Values after ≈ are worked out from the molar mass of the structure shown. Values joined by “and” are separate entries in the source; they are usually repeats but may differ in a detail not shown here. Equal entries are not always repeated. “Also recorded” adds a separate entry of the source.
Experiments:
[1] = system: BRCA2-NULL cells; experiment: Clonogenic assay (number of colonies counted); format: cell-based; conditions: three replicates
Source text: Supplement 41467_2024_46593_MOESM7_ESM.xlsx, sheet "Supplem 1 b" | column: BRCA2-NULL

[2] = system: BRCA2-WT cells; experiment: Clonogenic assay (number of colonies counted); format: cell-based; conditions: three replicates
[3] = Solubility (2% DMSO/PBS); format: physicochemical; conditions: aqueous buffer, kinetic from dmso stock
[4] = system: MMEJ reporter (EJ2-GFP) in U2OS cells; experiment: Chromosomal MMEJ GFP assay; format: cell-based; conditions: for % GFP/dsRED ratio, Combined mean: Combined EXP.1-3 (0 uM: 3.78889); for % GFP/dsRED ratio, mean per experiment: means of EXP.1, 2, 3 (0 uM: 4.4, 3.73333, 3.23333); for % GFP/dsRED ratio: single replicates of EXP.1-3
Experimental: U2OS cells harboring the chromosomal (EJ2-GFP cassette) MMEJ reporter were plated and treated with various concentrations of RTX-161 for 16 h. Cells were co-transfected with either pCMV–3x- NLS-I-SceI or control vector pCMV-3x-NLS using Lipofectamine 2000 (Invitrogen) along with dsRED-Mito cDNA (control for transfection efficiency). GFP^+ frequencies were measured 3 days post transfection by FACS using Facscanto (Becton Dickinson) in triplicates and corrected for transfection efficiency and background events.

[5] = Colony survival, ola with or without RTX-161 (source data sheet Fig. 2 b; cell line not given); format: cell-based
[6] = system: VC8 cells; experiment: Clonogenic assay; format: cell-based, Chinese hamster; conditions: for percent suvival: VC8 cells
Experimental: Cells were plated on six or twelve or twenty-four well plates. In six well plate, 1000 cells/ well of BRCA2 -/-, BRCA1 -/-, PALB2 mut and 500 cells/ well of wildtype pair was plated; In twelve well plate, 600 cells/ well of BRCA2 -/-, BRCA1 -/-, PALB2 mut and 400 cells/ well of wildtype pair was plated; In twenty-four well plate, 500 cells/ well of BRCA2 -/-, BRCA1 -/-, PALB2 mut and 300 cells/ well of wildtype pair was plated. For MEFs, 300 cells per well in six-well plate were seeded. The medium was replaced every 2 days until the colonies were ready for staining in 10–12 days. For staining: Medium was removed from plates, and cells were rinsed with PBS. Fixation was carried out with—Water: Ethanol: Acetic acid (5:4:1) for 30 min followed by staining of colonies with 0.5% crystal violet in Water: Ethanol (3:2) for 2 h at room temperature. The plates were rinsed with water and left for drying overnight at room temperature. Colonies were then counted and IC50 was calculated using results from 3 or more independent experiments. Response curves are shown as mean colony formation +/- S.E.M.
Data are expressed as mean ± SEM from at least 3 independent experiments with triplicates for each condition unless stated otherwise. When conducting comparison between two groups, two-tailed unpaired t-test was used. Significance was assumed at p < 0.05. Asterisks in the figures indicate significance, ^∗p < 0.05, ^∗∗p < 0.01, ^∗∗∗p < 0.001. Combenefit® software version 2.021 was used to perform synergy analyses for drug combinations between RTx-161 and PARPi. GraphPad Prism 9 software was used to calculate IC50.

CN(C(=O)Oc1ccc(C(F)(F)F)cc1C(F)(F)F)c1ccc(F)cc1 [MC160385]
number of olonies counted ([1]; MC160385 2.5 μM): 67 and 60 and 64
number of olonies counted ([1]; MC160385 5 μM): 56 and 64 and 62
number of olonies counted ([1]; MC160385 10 μM): 57 and 62 and 60
number of olonies counted ([1]; MC160385 20 μM): 59 and 56 and 58
number of olonies counted ([2]; MC160385 2.5 μM): 84 and 87 and 85
number of olonies counted ([2]; MC160385 5 μM): 82 and 86 and 83
number of olonies counted ([2]; MC160385 10 μM): 80 and 84 and 82
number of olonies counted ([2]; MC160385 20 μM): 79 and 84 and 80
solubility [3]: 56 µM (≈ 21.3 µg/mL)

CN(C(=O)Oc1c(N2CCN(CCO)C2=O)cc(C(F)(F)F)cc1C(F)(F)F)c1ccc(F)cc1 [RTx-161]
% GFP/dsRED ratio, Combined mean ([4]; 5 uM): 3.422%
% GFP/dsRED ratio, mean per experiment ([4]; 5 uM): 3.067% and 3.933% and 3.267%
% GFP/dsRED ratio ([4]; 5 uM): 2.8% and 4% and 2.5% and 3.3% and 3.6% and 3.5% and 3.1% and 4.2% and 3.8%
% GFP/dsRED ratio, Combined mean ([4]; 10 uM): 3.378%
% GFP/dsRED ratio, mean per experiment ([4]; 10 uM): 3.067% and 3.8% and 3.267%
% GFP/dsRED ratio ([4]; 10 uM): 2.9% and 3.3% and 2.6% and 3.2% and 3.9% and 3.4% and 3.1% and 4.2% and 3.8%
% GFP/dsRED ratio, Combined mean ([4]; 15 uM): 2.733%
% GFP/dsRED ratio, mean per experiment ([4]; 15 uM): 3.033% and 2.067% and 3.1%
% GFP/dsRED ratio ([4]; 15 uM): 2.9% and 2.2% and 3.3% and 2.8% (2×) and 2.1% and 3.4% and 1.9% and 3.2%
cellular MMEJ (GFP reporter) ([4]; 20 μM RTx-161): reduction in cellular MMEJ; also recorded: suppression of MMEJ
% GFP/dsRED ratio, Combined mean ([4]; 20 uM): 1.611%
% GFP/dsRED ratio, mean per experiment ([4]; 20 uM): 1.8% and 1.367% and 1.667%
% GFP/dsRED ratio ([4]; 20 uM): 1.9% and 1.3% and 1.8% and 1.6% (2×) and 1.5% and 1.2% and 1.7%
percent suvival ([5]; RTX-161 2.5 micro M + ola 11.8 nano M): 48.7273%
percent suvival ([5]; RTX-161 2.5 micro M + ola 26.60 nano M): 30.5455%
percent suvival ([5]; RTX-161 2.5 micro M + ola 60.00 nano M): 18.9091%
percent suvival ([5]; RTX-161 2.5 micro M, ola 0.00 nano M): 75.7576% and 82.5581% and 83.6364%
percent suvival ([5]; RTX-161 5 micro M + ola 11.8 nano M): 22.5455%
percent suvival ([5]; RTX-161 5 micro M + ola 26.60 nano M): 14.9091%
percent suvival ([5]; RTX-161 5 micro M + ola 60.00 nano M): 2.545%
percent suvival ([5]; RTX-161 5 micro M, ola 0.00 nano M): 46.9697% and 43.6047% and 70.9091%
percent suvival ([5]; RTX-161 10 micro M + ola 11.8 nano M): 9.818%
percent suvival ([5]; RTX-161 10 micro M + ola 26.60 nano M): 5.091%
percent suvival ([5]; RTX-161 10 micro M + ola 60.00 nano M): 0.7273%
percent suvival ([5]; RTX-161 10 micro M, ola 0.00 nano M): 24.2424% and 34.8837% and 47.6364%
percent suvival ([6]; RTX-161 1 micro M + ola 30.00 nano M): 0%
percent suvival ([6]; RTX-161 1 micro M, ola 0.00 nano M): 79.4521% and 92.4444% and 101.498%
percent suvival ([6]; RTX-161 3 micro M + ola 30.00 nano M): 0%
percent suvival ([6]; RTX-161 3 micro M, ola 0.00 nano M): 62.3288% and 70.2222% and 85.0187%
combination with Olaparib ([6]; clonogenic survival): significantly reduced cellular resistance to Olaparib

Source: paper PMC10997755, “Discovery of a small-molecule inhibitor that traps Polθ on DNA and synergizes with PARP inhibitors” (Nature Communications, 2024)
